Series [1] deals with high affinity 3H-D-aspartate absorption, synaptic vesicles (synaptosomes) from rat cortex. In words: "High affinity" absorption of 3H-aspartate in a vesicle preparation from rat brain. It is filed as biochemical. Particulars: for Stimulation of the 3H-D-aspartate absorption, Stimulation (%): relative to control values (100%). Here is the method: 1. "High affinity" absorption of ^3 H-aspartate in a vesicle preparation from rat brain.
Test principle: Fresh synaptic vesicles (synaptosomes) from rat cortex are incubated with buffer solution and ^3 H-D-aspartate and ^3 H-D-aspartate in the vesicles is measured. Preparations which in comparison to control synaptosomes increase the high affinity ^3 H-D-aspartate absorption and those which prevent the loss of ^3 H-D-aspartate by reliberation are regarded as particularly interesting.
Experimental protocol: The experiments for ^3 H-D-aspartate absorption were carried out by the method of Anand et al. (Biochem. Pharmacol., 35 (1986), 1055-1057). The synaptic vesicles were dissected out of cerebral cortex from male Sprague-Dawley rats. The preparations were tested at four concentrations as double samples in parallel with control samples containing buffer. The incubation medium (pH 7.4) contains: 1.2 mM KH2 PO4, 5 mM KCl, 5 mM pyruvate, 1.2 mM glucose, 1.2 mM MgCl2, 114 mM NaCl, 25 mM NaHCO3. For the non-specific ^3 H-D-aspartate absorption, NaCl was replaced by 114 mM choline chloride and NaHCO3 by 25 mM KHCO3. An aliquot of the vesicle suspension (about 25 μg/ml of test solution) was added to the test sample which was temperature controlled at 37° C. and aerated with Carbogen (5% CO2, 95% O2) and preincubated for 2 minutes. The three minutes incubation for the amino acid absorption was started by addition of 50 μl of ^3 H-D-aspartate (specific activity 25 Ci/mmol, 10 pmol/ml of test solution). The vesicles were separated from the incubation medium by filtration and additional washing of the adhering labeled amino acids using a Titertek cell harvester (Flow Laboratories, Meckenheim). The ^3 H-D-aspartate absorption was measured by means of a liquid scintillation counter (Canberra-Packard, Model 1500, Frankfurt).
The preparation activity is indicated in percent of the specific ^3 H-D-aspartate absorption, relative to control values (100%), in Table 3. Adenosine triphosphate (ATP) was used for comparison as the standard substance (see Table 3) and at 1 mM caused a 35% increase in the ^3 H-D-aspartate absorption.

Series [2] deals with NMDA-induced cramps. In words: Inhibition of NMDA-induced cramps in the mouse. Particulars: po, 1 h; for inhibition in vivo at 0.3 mg/kg: 0.3 mg/kg p.o. The format is in vivo. Here is the method: 4. Inhibition of NMDA-induced-cramps in the mouse
The examples listed below show neuroprotective activity in that they antagonize the cramps induced by NMDA (N-methyl-(D)-aspartate). To this end, intravenous injections of 20-30 mg/kg of NMDA are carried out on a male NMRI (Naval Medical Research Institute) mice of 22-24 g body weight, which leads to stereotypes, clonic cramps and in the majority of cases to mortality. In order to investigate an NMDA-antagonist activity of the test substances, they are administered orally one hour before NMDA. The animals are then observed for the abovementioned symptoms for up to 60 min. The number of animals with clonic cramps and the incidence of mortality, expressed in percent change compared to the control group, is regarded as the evaluation criterion.

The nature of series [3]: Toxicity (LD50) in the mouse. Particulars: in vivo. The text has this:
As the examples investigated show considerable differences in toxicity compared to the standard substances, the LD50 values are also listed in Table 6,

Series [4] has as its system CA1 pyramidal cells of the hippocampus after forebrain ischemia. Put plainly: Neuroprotection after forebrain ischemia in the gerbil. Particulars: 50 mg/kg p.o., 15 minutes before ischemia.
Experimental: A 5-minutes' ischemia of the forebrain with subsequent recirculation is produced in 20 male Mongolian gerbils under halothane anesthesia by bilateral closure of the corotid artery by means of aneurysm clips. 7 days later, the animals are decapitated under halothane anesthesia, the brains are fixed by immersion in Carnoy solution and the extent of neuron damage in the CA1 region of the hippocampus is determined "blind" with the aid of a 5-stage histopathological score. The test substance is administered intraperitoneally or orally 15 minutes before ischemia to each group of 10 gerbils. One ischemic control group, also of 10 animals, is treated with the respective solvents per test substance.
The mark [5] stands for this setting: preparation concentration 500 μM.
The mark [6] stands for this setting: preparation concentration 1000 μM (1 mM).
The mark [7] stands for this setting: 50 mg/kg p.o., one hour before NMDA i.v., change compared to control group, read-out: Inhibition of convulsions.
Setting [8] is: read-out: Inhibition of mortality.
Where [9] appears, read: preparation concentration 10 μM.
Where [10] appears, read: preparation concentration 100 μM.

Where a name gives a salt, the structure may show the parent alone. Read-outs that look alike come from different tables or passages of the source.

Consider `Nc1ncnc2c1ncn2[C@@H]1O[C@H](COP(=O)(O)OP(=O)(O)OP(=O)(O)O)[C@@H](O)[C@H]1O` [ATP, Adenosine triphosphate, reference compound], for which the “activity on 3H-D-aspartate absorption (in words)” value in series [1] (at a lower concentration than 500 μm) was “inactive”. Besides, the “Stimulation of the 3H-D-aspartate absorption, Stimulation (%)” value (“Stimulation … (%)” below) is reported as 31% in series [1] (setting [5]), 35% in series [1] (setting [6]), 57% in series [1] (preparation concentration 2000 μM) and 121% in series [1] (preparation concentration 5000 μM).
In general, LD50 refers to the dose expected to kill half of the subjects tested. On to `N.N.O=C(O)CCc1cc(CNCc2cc(CCC(=O)O)no2)on1` [Example 26, Bis(3-[2-carboxyethyl]isoxazol-5-ylmethyl)amine diammonium salt], for which the inhibition in vivo at 50 mg/kg in series [2] (setting [7]) came to 40%. The compound further showed a 50% lethal dose (LD50) in series [3] (iv) greater than 100 mg/kg.
As to `O=C(O)CCc1cc(CNC(=O)CCC[N+](=O)[O-])on1` [Example 53], in series [2] (setting [7]), the inhibition in vivo at 50 mg/kg amounted to 33%.
Take `Cl.O=C(C1=NOC(CN2CCCC2)C1)N1CCCC1` (stereo not shown) [Example 3, 5-Pyrrolidinomethyl-3-pyrrolidinocarbonyl-2-isoxazoline hydrochloride]: the “Stimulation … (%)” value in series [1] (setting [5]) is reported as 20%.
Take `O=C(O)CCc1cc(CNCc2ccccc2)on1` [Example 14, 5-Benzylaminomethylisoxazole-3-propionic acid]: the inhibition in vivo at 50 mg/kg in series [2] (setting [7]) came to 40%. Further, in series [1] (setting [5]), the “Stimulation … (%)” value is 19%. Also, in series [3] (ip), the LD50 was greater than 300 mg/kg.
Turning to `CCOP(C)(=O)CCc1cc(CN)on1` (stereo not shown) [Example 10, ethyl 2-(5-aminomethylisoxazole-3-yl)ethyl-2-(P-methyl)phosphinic acid hydrochloride], the inhibition in vivo at 50 mg/kg turned out to be 10% in series [2] (setting [7]) and 70% in series [2] (50 mg/kg p.o., one hour before NMDA i.v., change compared to control group, read-out: Inhibition of mortality). The “Stimulation … (%)” value in series [1] (setting [5]) came to 23%. In addition, in series [3] (iv), the LD50 is greater than 100 mg/kg.
In the case of `CC(C)[C@@H]1CC[C@@H](C)C[C@H]1OC(=O)CCC1=NOC(CN)C1` (single isomer, unassigned; (-)) [Example 28, (-)-Menthyl 5-aminomethyl-2-isoxazoline-3-propionate toluene-4-sulfonate], the inhibition in vivo at 50 mg/kg in series [2] (setting [7]) came to 20%.
Take `CN(C)Cc1cc(CCC(=O)O)no1` [Example 15, 5-Dimethylaminomethylizoxazole-3-propionic acid]: the inhibition in vivo at 50 mg/kg in series [2] (setting [7]) turned out to be 40%; in series [2] (setting [8]) it was 100%. Moreover, in series [3] (iv), the LD50 was greater than 100 mg/kg.
Take `NCC1CC(CCC(=O)O)=NO1` (single isomer, unassigned) [Example 31, 5-Aminomethyl-2-isoxazoline-3-propionic acid, (+)-enantiomer]: the “Stimulation … (%)” value in series [1] (setting [5]) came out at 21%.
With `NCC1CC(CCC(=O)O)=NO1` (racemic) [Example 29, 5-Aminomethyl-2-isoxazoline-3-propionic acid, racemate], in series [2] (setting [7]), the inhibition in vivo at 50 mg/kg was found to be 20%. The compound further gave an LD50 in series [3] (iv) greater than 200 mg/kg.
On to `CC(C)(N)c1cc(CCC(=O)O)no1` [Example 13, 5-(1-Amino-1-methylethyl)isoxazole-3-propionic acid], for which the “Stimulation … (%)” value in series [1] (setting [5]) was found to be 33%.
Consider `C[C@H]1C[C@@H](OC(=O)CCc2cc(C[N+](C)(C)C)on2)CC(C)(C)C1` (relative stereo) [Example 58, cis-(3,3,5)-trimethylcyclohexyl-5-trimethylammoniomethylisoxazole-3-propionate iodide], for which the “Stimulation … (%)” value in series [1] (setting [9]) worked out at 35%.
Take `CC(C)[C@H]1CC[C@H](C)C[C@@H]1OC(=O)CCC1=NOC(CN)C1` (single isomer, unassigned; (+)) [Example 27, (+)-Menthyl 5-aminomethyl-2-isoxazoline-3-propionate toluene-4-sulfonate]: the inhibition in vivo at 50 mg/kg in series [2] (setting [7]) stood at 20%. Moreover, the LD50 in series [3] (iv) lay in the range of 50 to 100 mg/kg.
With `CC(=O)NCC1CC(CCC(=O)O)=NO1` (stereo not shown) [Example 32], the figures for the inhibition in vivo at 50 mg/kg in series [2] (setting [7]) and in series [2] (setting [8]) were 30% and 50%, respectively. Further, in series [1] (setting [10]), the “Stimulation … (%)” value is on record as 19%. Moreover, the LD50 in series [3] (iv) is greater than 100 mg/kg.
On to `N=C(N)NCc1cc(CCC(=O)O)no1` [Example 23, 5-Guanidinomethylisoxazole-3-propionic acid], for which the inhibition in vivo at 50 mg/kg in series [2] (setting [7]) stood at 40%. This compound also showed a 50% lethal dose (LD50) in series [3] (ip) greater than 300 mg/kg.
In the case of `CC(=O)NCc1cc(CCC(=O)O)no1` [Example 17, 5-Acetamidomethylisoxazole-3-propionic acid], the inhibition in vivo at 30 mg/kg worked out at 30% in series [2] (30 mg/kg p.o., one hour before NMDA i.v., change compared to control group, read-out: Inhibition of convulsions) and 100% in series [2] (setting [8]). Besides, the LD50 in series [3] (ip) is greater than 300 mg/kg.
As for `NCc1cc(CCC(=O)NCC(=O)O)no1` [Example 24, N-(5-Aminomethylisoxazol-3-yl)propionylglycine], the “Stimulation … (%)” value in series [1] (setting [5]) is given as 28%.
As for `CP(=O)(O)CCc1cc(CN)on1` [Example 16, 2-(5-Aminomethylisoxazol-3-yl)ethyl-2-(-methyl)phosphinic acid hydrochloride], the inhibition in vivo at 50 mg/kg in series [2] (read-out: Inhibition of convulsions) and in series [2] (setting [8]) was 30% throughout. The “Stimulation … (%)” value in series [1] (setting [6]) came out at 19%. The “Cell necroses (% change)” value in series [4] (histopathological score CA1, treated versus control group) was -27 % change. Further, the “Behavior score (% change)” value in series [4] (treated versus control group) worked out at 0 % change.
On to `COC(=O)CCc1cc(C=NO)no1` [Example 55, methyl-3-hydroxyliminomethyl-isoxazole-5-propionate], for which the values for the inhibition in vivo at 50 mg/kg in series [2] (setting [7]) and in series [2] (setting [8]) were 33% and 100%, respectively.
Regarding `CN(C)C(=O)C1=NOC(CN)C1` (stereo not shown) [Example 39], the “Stimulation … (%)” value in series [1] (setting [6]) is listed as 14%.
Consider `C[C@H]1C[C@@H](OC(=O)CCc2cc(CN)on2)CC(C)(C)C1` (relative stereo) [Example 9, cis-(3,3,5)trimethylcyclohexyl 5-aminomethylisoxazole-3-propionate toluene-4-sulfonate], for which, in series [1] (setting [10]), the “Stimulation … (%)” value amounted to 19%.
Regarding `C[C@]12N[C@H](Cc3ccccc31)c1ccccc12` [MK 801, (+)-5-methyl-10,11-dihydro-5H-dibenzo[a,d]cyclohept-5-en-10-imine, reference compound], the inhibition in vivo at 0.3 mg/kg in series [2] (one hour before NMDA i.v., change compared to control group, read-out: Inhibition of convulsions) was determined as 60%; in series [2] (one hour before NMDA i.v., change compared to control group, read-out: Inhibition of mortality) it was 60%. This compound showed an LD50 in series [3] (iv) of 30 to 60 mg/kg.
Consider `CCOC(=O)CCc1cc(CN)on1.Cl` [Example 6, ethyl 5-aminomethylisoxazole-3-propionate hydrochloride], for which the inhibition in vivo at 50 mg/kg in series [2] (setting [7]) was found to be 20%; in series [2] (setting [8]), 40%. Moreover, the “Stimulation … (%)” value in series [1] (setting [9]) is reported as 17%. Besides, in series [3] (iv), the LD50 was greater than 100 mg/kg.
Regarding `Cl.NCc1cc(CCC(N)=O)no1` [Example 50, 5-aminomethylisoxazole-3-propionamide hydrochloride], in series [1] (setting [5]), the “Stimulation … (%)” value turned out to be 15%.
On to `Cl.NCc1cc(CCO)no1` [Example 25, 5-Aminomethyl-3-(2-hydroxyethyl)isoxazole hydrochloride], for which, in series [1] (setting [5]), the “Stimulation … (%)” value worked out at 20%.
